# Where “and” joins values, the source holds several entries; their conditions need not be identical. Equal entries are not always repeated.
# How the values were obtained:
# Format in all cases: cell-based
# [1] = Cell viability assay (CellTiter-Glo) in Jurkat cells; settings: human, Jurkat cells; for viability at 72 h, 10 nmol/L: concentration 10 nmol/L; for viability at 72 h, 100 nmol/L: concentration 100 nmol/L; for viability at 72 h, 300 nmol/L: concentration 300 nmol/L; for viability at 72 h, 1000 nmol/L: concentration 1000 nmol/L; for viability at 72 h, 3000 nmol/L: concentration 3000 nmol/L; for viability at 72 h, 10000 nmol/L: concentration 10000 nmol/L; for viability at 72 h, 0.01 µM: 10 nM; for viability at 72 h, 0.1 µM: 100 nM; for viability at 72 h, 1 µM: 1000 nM; for viability at 72 h, 3 µM: 3000 nM
# Procedure: (§1) Jurkat cells (3 × 10^3) and Hep G2 cells (3.5 × 10^3) were seeded in 96-well plates in 100 μL culture medium. Cells were treated with compounds dissolved in 50 μl medium at the indicated concentration for 72 h, at the same time, one plate of cells without compounds treatment was used for the cell count at time zero. After adding 40 μl of CellTiter-Glo® reagent (Promega, G7571) to each well for 10 min at room temperature, the luminescence was measured on a Spark® Multimode Microplate Reader (Tecan). The data was analyzed by the GraphPad Prism 9.0.
# [2] = system: Jurkat cells; test: as above; settings: for GI50: Homo sapiens; for GI50 / Relative cell viability (%): Jurkat cells, 72 h; for Relative cell viability (%): Fig. 4k; for Cell viability (%) relative to DMSO: individual replicates, Supplementary Fig. 7g
# Procedure: as §1
# [3] = biological target: BRD2 (Homo sapiens, UniProt P25440); test: BRD2 levels by Western blot in KBM7 cells (WT, DCAF11 knockout, DDB1 knockout); set-up: endogenous in cells; host or cells: KBM7 (WT, DCAF11 KO, DDB1 KO); settings: 4 h
# Procedure: Cells were washed with PBS and lysed in lysis buffer (50 mM Tris-HCl, pH 7.4, 150 mM NaCl, 1% Triton X-100, 1% sodium deoxycholate, 0.1% SDS) with complete protease inhibitor cocktail (Roche, 11836170001) for 30 min on ice. For Ramos cells, cell pellets were lysed in lysis buffer (50 mM Tris-HCl, pH 8, 150 mM NaCl, 1% NP-40, 0.5% sodium deoxycholate) with complete protease inhibitor cocktail. After centrifugation at 16,000 x g, the supernatant was transferred into a new tube and the protein concentration was determined by DC protein assay (BIO-RAD, 5000116). Proteins were separated by SDS-PAGE and transferred to a PVDF membrane (Thermo scientific, 0.45 μm, 88518). For PDEδ, BRD2, GAPDH, BRD4, Vinculin and BTK, the membranes were blocked with Intercept® Blocking Buffer (LI-COR Biosciences, 927-70001) at room temperature for 1 h. The primary antibodies for these proteins were diluted with Intercept® Blocking Buffer (1:500 for PDEδ, 1:3000 for Vinculin, and 1:1000 for other proteins) and incubated with the membranes overnight at 4 °C. Membranes were washed with PBS + 0.1% Tween 20 (PBS-T) five times and incubated with secondary antibodies conjugated to IRDye® Infrared Fluorescent Dyes (1:5000, LI-COR Biosciences) at room temperature for 1 h with protection from light. After washing the membrane, signals were visualized using the ChemiDoc MP Imaging System (BIO-RAD Laboratories). For detection of LC3B, BRD3, BLK, DCAF11, DDB1 RBX1, FIP200, V5- and FLAG-Tag the membranes were blocked with 5% milk in PBS-T at room temperature for 1 h. The primary antibodies for these proteins were diluted in 5% milk in PBS-T buffer (1:200 for BRD3, 1:1000 for other proteins) and incubated with the membranes overnight at 4 °C. Membranes were washed with PBS-T five times and incubated with HRP secondary antibodies (1:1500) at room temperature for 1 h. After washing the membrane, protein detection was performed using Western blotting detection reagent (Thermo Scientific, 34095) and the ChemiDoc MP Imaging System (BIO-RAD). Relative band intensities were quantified using Image Lab (BIO-RAD).
# DCAF11- or FIP200 (RB1CC1)-targeting sgRNAs were lentivirally packaged using PEI transfection of Lenti-X cells. The viral supernatant was harvested after 72 h, cleared of cellular debris by filtration through a 0.45-µm PES filter and stored in aliquots at −80 °C. The appropriate amount of viral supernatant was transduced into KBM7 cells (1 × 10^6 cells/mL) via spinfection (2000 rpm, 1 h, 37 °C) with polybrene (8 µg/mL). Two days post transduction, the cells were selected with puromycin (1 µg/mL) for a total of 5 days, after which the knockout pools were validated via western blotting.
# [4] = system: BRD2; test: In-Cell Western for BRD2 levels in Hep G2 cells; settings: Hep G2 cells; 4 h
# Procedure: Hep G2 cells were seeded in 96-well plates and incubated for 24 h. Compounds were added for the indicated time at the indicated concentration. Cells were then washed once with PBS and fixed with 4% paraformaldehyde for 30 min at room temperature. The fixed cells were permeabilized with 0.5 % Triton-X100 for 15 min followed by block with Intercept® Blocking Buffer (LI-COR Biosciences, 927-70001) for 1 h at room temperature. Primary antibodies for BRD2 (1:800) and Vinculin (1:2000) were diluted with LI-COR buffer and incubated with the cells at 4 °C overnight. Cells were washed with PBS-T, and the secondary antibodies conjugated to IRDye (1:1000, LI-COR Biosciences) were added to the cells for 1 h at room temperature. After washing the cells, the signal was recorded with the Odyssey® CLx Infrared Imaging System (LI-COR Biosciences) and the protein levels were analyzed by Image Studio (LI-COR Biosciences). BRD2 protein levels were normalized to the levels of reference protein vinculin.
# [5] = system: caspase-3/7 activity; test: Caspase-3/7 Activity Assay in Jurkat cells; settings: 18 h, Fig. 4l
# Procedure: Jurkat cells (3 × 10^3) were seeded in 96-well plates in 25 μl culture medium. Cells were treated with compounds dissolved in 25 μl medium at the indicated concentration for 18 h. After adding 50 μl of Caspase-Glo® 3/7 Reagent (Promega, G8091) to each well for 30 min at room temperature, the luminescence was measured on a Spark® Multimode Microplate Reader (Tecan). The data was analyzed by the GraphPad Prism 9.0.
# [6] = individual replicates, Supplementary Fig. 7g, read-out: Cell viability (%) relative to DMSO
# [7] = 72 h, Fig. 4k, read-out: Relative cell viability (%)
# Sequence of BRD2 (Homo sapiens, UniProt P25440) (P25440 whole entry): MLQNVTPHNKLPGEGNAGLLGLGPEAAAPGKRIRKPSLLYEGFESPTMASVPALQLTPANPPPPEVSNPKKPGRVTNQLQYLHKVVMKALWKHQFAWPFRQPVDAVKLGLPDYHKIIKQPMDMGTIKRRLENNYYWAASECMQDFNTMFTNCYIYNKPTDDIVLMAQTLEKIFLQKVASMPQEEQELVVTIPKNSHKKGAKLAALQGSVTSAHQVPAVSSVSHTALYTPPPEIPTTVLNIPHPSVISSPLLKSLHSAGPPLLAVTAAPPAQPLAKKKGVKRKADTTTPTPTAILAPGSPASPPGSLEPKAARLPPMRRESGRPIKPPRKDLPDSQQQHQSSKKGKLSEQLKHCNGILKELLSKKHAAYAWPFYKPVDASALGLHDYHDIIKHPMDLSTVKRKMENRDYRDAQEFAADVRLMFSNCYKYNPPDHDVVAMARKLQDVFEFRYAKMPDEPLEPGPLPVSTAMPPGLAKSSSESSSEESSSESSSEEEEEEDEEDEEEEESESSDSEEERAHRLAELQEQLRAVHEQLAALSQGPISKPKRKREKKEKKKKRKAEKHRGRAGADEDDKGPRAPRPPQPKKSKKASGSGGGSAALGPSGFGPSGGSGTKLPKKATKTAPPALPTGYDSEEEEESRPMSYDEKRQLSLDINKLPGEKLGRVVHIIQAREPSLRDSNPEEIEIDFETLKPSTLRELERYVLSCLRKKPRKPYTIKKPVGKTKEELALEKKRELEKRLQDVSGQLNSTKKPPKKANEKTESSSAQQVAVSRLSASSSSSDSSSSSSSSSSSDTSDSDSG
Compound,"viability at 72 h, 10 nmol/L [1, 6] [%]","viability at 72 h, 100 nmol/L [1, 6] [%]","viability at 72 h, 300 nmol/L [1, 6] [%]","viability at 72 h, 1000 nmol/L [1, 6] [%]","viability at 72 h, 3000 nmol/L [1, 6] [%]","viability at 72 h, 10000 nmol/L [1, 6] [%]","viability at 72 h, 0.01 µM [1, 7] [%]","viability at 72 h, 0.1 µM [1, 7] [%]","viability at 72 h, 1 µM [1, 7] [%]","viability at 72 h, 3 µM [1, 7] [%]",GI50 [2] [µM],"Relative cell viability (%) ([2]; 10 nM, 0.01 µM)","Relative cell viability (%) ([2]; 30 nM, 0.03 µM)","Relative cell viability (%) ([2]; 100 nM, 0.1 µM)","Relative cell viability (%) ([2]; 300 nM, 0.3 µM)","Relative cell viability (%) ([2]; 1000 nM, 1 µM)","Relative cell viability (%) ([2]; 3000 nM, 3 µM)","Relative cell viability (%) ([2]; 10000 nM, 10 µM)","Relative cell viability (%) ([2]; 30000 nM, 30 µM)",Cell viability (%) relative to DMSO ([2]; concentration 10 nmol/L),other results
Cc1sc2c(c1C)C(c1ccc(Cl)cc1)=NC(CC(=O)NCCOCCOCCOCCOCCNC(=O)COc1c(Br)cc(CC3C(=O)Nc4ccc(Br)cc43)cc1Br)c1nnc(C)n1-2 (stereo not drawn) [Compound 16],95.2,99.6,96.7,82.7,60,8.63,97.2,92.6,49.7,16.6,1 to 1.2,112.636% and 96.9495%,115.001% and 96.0444%,99.9011% and 81.8303%,80.1727% and 96.1576% and 71.4791%,60.9647% and 43.3109%,18.6473% and 16.4385%,-0.2254% and 0.02364% and 0.3624%,-0.3131% and -0.2888% and -0.253%,99.6715% and 109.515%,"viability at 72 h, 0.03 µM ([1]; 72 h, 30 nM, Fig. 4k, read-out: Relative cell viability (%)): 102%; Cell viability (%) relative to DMSO ([2]; concentration 30 nmol/L): 97.9616% and 103.22% and 119.751%; Cell viability (%) relative to DMSO ([2]; concentration 100 nmol/L): 100.592% and 111.273%; Cell viability (%) relative to DMSO ([2]; concentration 300 nmol/L): 96.8221% and 108.638%; Cell viability (%) relative to DMSO ([2]; concentration 1000 nmol/L): 85.5266% and 95.8957%; Cell viability (%) relative to DMSO ([2]; concentration 3000 nmol/L): 59.9059% and 72.5452%; Cell viability (%) relative to DMSO ([2]; concentration 10000 nmol/L): 8.512% and 16.0463%; Cell viability (%) relative to DMSO ([2]; concentration 30000 nmol/L): -0.0717% and -0.2673% and -0.08298%; BRD2 degradation in KBM7 cells [3]: did not induce degradation of BRD2; BRD2 depletion by In-Cell Western [4]: did not induce in cellulo degradation; Caspase 3/7 activity (fold change) ([5]; 0.3 μM): 1.231 fold change and 1.654 fold change and 1.232 fold change; Caspase 3/7 activity (fold change) ([5]; 1 μM): 1.2 fold change and 1.194 fold change and 1.182 fold change"
Cc1sc2c(c1C)C(c1ccc(Cl)cc1)=NC(CC(=O)NCCOCCOCCOCCOc1c(Br)cc(CC3C(=O)Nc4ccc(Br)cc43)cc1Br)c1nnc(C)n1-2 (stereo not drawn) [Compound 17],104,100,92.8,80.1,58.9,38.2,120,104,54.7,23,1 to 1.2,113.554% and 104.708%,107.162% and 119.822% and 97.6289%,93.2408% and 94.967%,80.2996% and 90.3554% and 69.1714%,51.0815% and 43.0724%,24.9133% and 20.9046%,-0.06982% and 0.1224% and 1.03%,-0.1785% and -0.1531% and -0.21%,97.5079% and 115.29%,"viability at 72 h, 30 nmol/L ([1]; concentration 30 nmol/L, individual replicates, Supplementary Fig. 7g, read-out: Cell viability (%) relative to DMSO): 101%; Cell viability (%) relative to DMSO ([2]; concentration 30 nmol/L): 100.694% and 103.862%; Cell viability (%) relative to DMSO ([2]; concentration 100 nmol/L): 98.8981% and 102.192%; Cell viability (%) relative to DMSO ([2]; concentration 300 nmol/L): 95.2575% and 90.332%; Cell viability (%) relative to DMSO ([2]; concentration 1000 nmol/L): 81.9098% and 92.9141%; Cell viability (%) relative to DMSO ([2]; concentration 3000 nmol/L): 61.001% and 70.9093%; Cell viability (%) relative to DMSO ([2]; concentration 10000 nmol/L): 25.3619% and 36.1626%; Cell viability (%) relative to DMSO ([2]; concentration 30000 nmol/L): 28.6334% and 13.2236% and 16.0233%; BRD2 degradation in KBM7 cells [3]: did not induce degradation of BRD2; Caspase 3/7 activity (fold change) ([5]; 0.3 μM): 1.197 fold change and 0.791 fold change and 0.9918 fold change; Caspase 3/7 activity (fold change) ([5]; 1 μM): 1.23 fold change and 0.8887 fold change and 1.1561 fold change"

# — paper PMC10689823, “Discovery of a Drug-like, Natural Product-Inspired DCAF11 Ligand Chemotype” (Nature Communications, 2023)
